From US9233976B2, “Berbamine derivatives” (CITY OF HOPE, priority 2009, dated 2016)
pIC50: −log10 of the molar value.

Tests used:
[1] = system: DU145 prostate cancer cell line; assay: MTS cell viability assay in DU145 cells; type: cell-based; details: DU145, 48 h
Description: (§1) IC50 of values of berbamine derivatives were determined in cancer cell lines DU145 and A2058 respectively. DU145 and A2058 cells (5,000 cells/well) were treated with berbamine derivatives in a dose-dependent manner (0.1 to 20 μM in 1% DMSO for 48 h. Then, MTS assay for cell viability were carried out to determine the IC50 values. Four samples were tested for each berbamine derivatives at each concentration in each cell line, and the averaged data were shown in Table 1 and FIGS. 1-8.

[2] = system: A2058 human melanoma cell line; assay: MTS cell viability assay in A2058 cells; type: cell-based; details: A2058, 48 h
Description: as §1

[3] = system: Imatinib-resistant leukemia (K562/ADR) cells; assay: Cell viability in imatinib-resistant leukemia cells; type: cell-based
Description: Imatinib-resistant leukemia (K562/ADR) cells (5,000 cells/well) were treated with different concentrations (0.6-40 μM in DMSO) of BA #1, BA #3 and BA #4 respectively for 48 hours and cell viability was measured.

[4] = system: Human normal dermal fibroblast (NHDF) cells; assay: Cell viability in normal dermal fibroblasts; type: cell-based
[5] = system: human erythroleukemia HEL (homozygous JAK2 V617F mutation) cells; assay: MTS cell viability assay in HEL cells; type: cell-based; details: HEL Jak2 V617 mutation, 48 h
Description: HEL Jak2 V617 mutation cells (10,000 cells/well) were treated with different concentration (0.1 μM to 20 μM in 1% DMSO of berbamine, BA #3, and BA #10 respectively for 48 h. Then, MTS assay for cell viability were carried out to determine the IC50 values. Four samples were tested for each test compound at each concentration, and the averaged data were shown in Table 3 and FIGS. 10-11.

[6] = system: human acute lymphoblastic leukemia (Molt4) cells; assay: MTS cell viability assay in Molt4 cells; type: cell-based; details: MOLT-4, Molt4, 48 h
Description: (§2) Each type of cells (5,000 or 10,000 cells/well) were treated with different concentration (0.1 μM to 20 μM in 1% DMSO of berbamine and BA #3 respectively for 48 h. Then, MTS assay for cell viability were carried out to determine the IC50 values. Four samples were tested for each test compound at each concentration for each type of cells, and the averaged data were shown in Table 4 and FIGS. 12-13.

[7] = system: human acute lymphocytic leukemia (Reh) cells; assay: MTS cell viability assay in Reh cells; type: cell-based; details: 48 h
Description: as §2

[8] = system: multiple myeloma (U266) cells; assay: MTS cell viability assay in U266 cells; type: cell-based; details: Homo sapiens, U-266, U266, 48 h
Description: as §2

melanoma A375 cells = assay: MTS cell viability assay in A375 cells; type: cell-based; details: Homo sapiens, A-375, A375, 48 h
Description: as §2

melanoma G361 cells = assay: MTS cell viability assay in G361 cells; type: cell-based; details: Homo sapiens, G-361, G361, 48 h
Description: as §2

melanoma SK-MEL-28 cells = assay: MTS cell viability assay in SK-MEL-28 cells; type: cell-based; details: Homo sapiens, SK-MEL-28, 48 h
Description: as §2

melanoma SK-MEL-5 cells = assay: MTS cell viability assay in SK-MEL-5 cells; type: cell-based; details: Homo sapiens, SK-MEL-5, 48 h
Description: as §2

[9] = system: ovarian cancer OVCAR5 cells; assay: MTS cell viability assay in OVCAR5 cells; type: cell-based; details: Homo sapiens, OVCAR-5, OVCAR5, 48 h
Description: as §2

[10] = system: ovarian cancer SKOV3 cells; assay: MTS cell viability assay in SKOV3 cells; type: cell-based; details: Homo sapiens, SK-OV-3, SKOV3, 48 h
Description: as §2

[11] = system: pancreatic cancer (PANC-1) cells; assay: MTS cell viability assay in PANC-1 cells; type: cell-based; details: Homo sapiens, PANC-1, 48 h
Description: as §2

Jak2/Stat3 signaling [12] = assay: Western blot of Jak2/Stat3 signaling in A2058 melanoma cells; type: cell-based; details: 0-10 μM for 4 hour or 10 μM for 0-24 hour
Description: (§3) To determine whether BA #3 block Jak2/Stat3 or Src/Stat3 signaling pathway, A2058 melanoma (A and B) and erythroleukemia HEL cells were treated with BA #3 in a dose- or time-dependent manner. Western blots were performed with specific antibodies to p-Jak2, p-Src, p-Stat3, p-AKT, Jak2, Src, Stat3 and AKT.

Jak2/Stat3 signaling [13] = assay: Western blot of Jak2/Stat3 signaling in erythroleukemia HEL cells; type: cell-based; details: 0-10 μM, 4 hour
Description: as §3

Src kinase = Src kinase (Homo sapiens, UniProt P12931); assay: In vitro Src kinase assay with peptide substrate; type: biochemical; details: activated recombinant protein with peptide substrate and ATP
Source text: (§4) To determine whether BA #3 inhibits activities of Src kinase, Jak2 kinase, Jak1 kinase and Tyk2 kinase in vitro, activated recombinant proteins were mixed with peptide substrates and ATP in the absence or the presence of BA #3. […] However, BA #3 reduced Jak2 autophosphorylation kinase activity at Tyr1007/1008 sites in vitro in the reaction of mixture of non-activated recombinant Jak2 protein and ATP in the absence of substrates (FIG. 19).

Jak2 kinase = Jak2 kinase (Homo sapiens, UniProt O60674); assay: In vitro Jak2 kinase assay with peptide substrate; type: biochemical; details: activated recombinant protein with peptide substrate and ATP
Source text: as §4

Jak1 kinase = Jak1 kinase (Homo sapiens, UniProt P23458); assay: In vitro Jak1 kinase assay with peptide substrate; type: biochemical; details: activated recombinant protein with peptide substrate and ATP
Source text: as §4

Tyk2 kinase = Tyk2 kinase (Homo sapiens, UniProt P29597); assay: In vitro Tyk2 kinase assay with peptide substrate; type: biochemical; details: activated recombinant protein with peptide substrate and ATP
Source text: as §4

[14] = target: non-activated recombinant Jak2 protein (autophosphorylation at Tyr1007/1008) (Homo sapiens, UniProt O60674); assay: In vitro Jak2 autophosphorylation kinase assay; type: biochemical; details: non-activated recombinant Jak2 and ATP, no substrate, densitometry; read-out: IC50 for inhibition of autophosphorylation kinase activity
Source text: as §4, with “FIG. 19. In vitro Jak2 autophosphorylation kinase assay of BA #3. A) Autophosphorylation of Jak2 at Tyr1007/1008 was required for its catalytic activity, non-activated recombinant Jak2 protein was mixed with ATP in the absence or presence of BA #3; B) inhibitory activity of Jak2 autophosphorylation based on the densitometry of FIG. 19(A). To” for “To”

Mcl-1 = assay: Western blot of Mcl-1 protein; type: cell-based; details: 5 μM, 24 h
Description: (§5) To determine whether BA #3 down-regulates Stat3 downstream anti-apototic proteins Mcl-1 and Bcl-xL, cells were treated with BA #3 in a dose-dependent manner for 24 h. Western blots were performed with specific antibodies to Mcl-1 and Bcl-xL.

Bcl-xL = assay: Western blot of Bcl-xL protein; type: cell-based; details: 5 μM, 24 h
Description: as §5

A2058 cells = assay: Annexin V-FITC apoptosis assay; type: cell-based; details: 0-10 μM, 48 hours
Description: A2058 cells were treated with BA #3 in a dose dependent manner (0-10 μM) for 48 hours.

[15] = Maximum tolerated dose (MTD) study, body weight; type: in vivo; details: mice, oral, 50 mg/kg and 100 mg/kg every day for 5 days
Description: Three test groups of mice (four mice per group) were orally administrated with vehicle only, 50 mg/kg BA #3 and 100 mg/kg BA #3 respectively every day for 5 days. Mice were weighed every day. Two sets of experiments were carried out (FIGS. 22(A) and (B)).

cancer cell lines = assay: IC50 in cancer cell lines tested (summary statement); type: cell-based; details: summary over cell lines tested
Source text: For example, berbamine derivatives (e.g. BA #3) show significant (at least 10-fold) improvement in activity over berbamine in cancer cell lines tested (e.g. K562/ADR). Berbamine derivatives (e.g. BA #3) also show inhibition of Jak2/Stat3 signaling in cancer cell lines (e.g. A2058, erythroleukemia HEL cells), and show down-regulation of Mcl-1 and Bcl-xL proteins.

Src kinase, sequence (P12931 whole entry): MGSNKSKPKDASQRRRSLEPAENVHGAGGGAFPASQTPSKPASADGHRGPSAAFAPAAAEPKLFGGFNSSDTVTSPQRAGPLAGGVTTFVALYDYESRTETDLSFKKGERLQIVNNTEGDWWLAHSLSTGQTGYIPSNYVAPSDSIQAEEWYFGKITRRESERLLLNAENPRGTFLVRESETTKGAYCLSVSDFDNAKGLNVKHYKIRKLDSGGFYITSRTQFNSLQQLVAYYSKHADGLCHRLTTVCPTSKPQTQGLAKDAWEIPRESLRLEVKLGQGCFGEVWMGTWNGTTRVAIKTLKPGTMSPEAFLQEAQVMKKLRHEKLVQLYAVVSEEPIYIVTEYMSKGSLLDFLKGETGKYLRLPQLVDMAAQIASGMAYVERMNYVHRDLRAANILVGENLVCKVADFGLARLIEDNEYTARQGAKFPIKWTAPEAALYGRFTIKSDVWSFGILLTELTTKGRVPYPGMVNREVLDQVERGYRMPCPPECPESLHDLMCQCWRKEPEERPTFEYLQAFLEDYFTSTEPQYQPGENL
Jak1 kinase, sequence (P23458 whole entry): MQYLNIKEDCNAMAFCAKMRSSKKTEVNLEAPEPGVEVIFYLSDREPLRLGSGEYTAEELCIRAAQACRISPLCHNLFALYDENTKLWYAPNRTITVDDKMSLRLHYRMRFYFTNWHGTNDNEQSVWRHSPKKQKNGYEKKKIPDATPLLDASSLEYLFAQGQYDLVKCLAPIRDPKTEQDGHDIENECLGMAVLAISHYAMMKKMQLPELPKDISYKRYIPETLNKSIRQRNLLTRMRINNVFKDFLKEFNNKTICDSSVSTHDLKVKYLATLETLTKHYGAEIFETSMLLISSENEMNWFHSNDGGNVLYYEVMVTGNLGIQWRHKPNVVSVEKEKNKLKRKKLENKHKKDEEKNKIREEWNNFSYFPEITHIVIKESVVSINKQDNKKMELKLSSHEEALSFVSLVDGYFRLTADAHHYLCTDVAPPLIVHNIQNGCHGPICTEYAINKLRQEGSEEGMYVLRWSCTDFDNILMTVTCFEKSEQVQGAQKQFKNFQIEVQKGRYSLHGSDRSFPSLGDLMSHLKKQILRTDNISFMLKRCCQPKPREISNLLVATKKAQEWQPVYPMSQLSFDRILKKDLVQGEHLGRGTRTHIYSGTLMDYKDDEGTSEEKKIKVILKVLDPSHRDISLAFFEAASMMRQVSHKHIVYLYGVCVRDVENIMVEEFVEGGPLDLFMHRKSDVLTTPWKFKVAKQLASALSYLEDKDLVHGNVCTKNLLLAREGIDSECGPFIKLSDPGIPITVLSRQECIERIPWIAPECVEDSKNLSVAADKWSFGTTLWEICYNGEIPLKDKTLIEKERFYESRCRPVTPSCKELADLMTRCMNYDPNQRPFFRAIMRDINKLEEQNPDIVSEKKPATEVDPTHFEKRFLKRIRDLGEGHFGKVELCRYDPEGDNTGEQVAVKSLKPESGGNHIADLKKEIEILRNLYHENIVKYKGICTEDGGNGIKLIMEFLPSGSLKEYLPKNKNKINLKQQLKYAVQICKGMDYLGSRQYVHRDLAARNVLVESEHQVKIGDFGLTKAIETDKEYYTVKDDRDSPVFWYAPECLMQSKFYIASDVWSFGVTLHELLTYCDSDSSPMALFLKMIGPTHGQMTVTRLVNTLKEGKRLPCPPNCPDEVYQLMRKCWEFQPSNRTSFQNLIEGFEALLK
non-activated recombinant Jak2 protein (autophosphorylation at Tyr1007/1008), sequence (O60674 whole entry): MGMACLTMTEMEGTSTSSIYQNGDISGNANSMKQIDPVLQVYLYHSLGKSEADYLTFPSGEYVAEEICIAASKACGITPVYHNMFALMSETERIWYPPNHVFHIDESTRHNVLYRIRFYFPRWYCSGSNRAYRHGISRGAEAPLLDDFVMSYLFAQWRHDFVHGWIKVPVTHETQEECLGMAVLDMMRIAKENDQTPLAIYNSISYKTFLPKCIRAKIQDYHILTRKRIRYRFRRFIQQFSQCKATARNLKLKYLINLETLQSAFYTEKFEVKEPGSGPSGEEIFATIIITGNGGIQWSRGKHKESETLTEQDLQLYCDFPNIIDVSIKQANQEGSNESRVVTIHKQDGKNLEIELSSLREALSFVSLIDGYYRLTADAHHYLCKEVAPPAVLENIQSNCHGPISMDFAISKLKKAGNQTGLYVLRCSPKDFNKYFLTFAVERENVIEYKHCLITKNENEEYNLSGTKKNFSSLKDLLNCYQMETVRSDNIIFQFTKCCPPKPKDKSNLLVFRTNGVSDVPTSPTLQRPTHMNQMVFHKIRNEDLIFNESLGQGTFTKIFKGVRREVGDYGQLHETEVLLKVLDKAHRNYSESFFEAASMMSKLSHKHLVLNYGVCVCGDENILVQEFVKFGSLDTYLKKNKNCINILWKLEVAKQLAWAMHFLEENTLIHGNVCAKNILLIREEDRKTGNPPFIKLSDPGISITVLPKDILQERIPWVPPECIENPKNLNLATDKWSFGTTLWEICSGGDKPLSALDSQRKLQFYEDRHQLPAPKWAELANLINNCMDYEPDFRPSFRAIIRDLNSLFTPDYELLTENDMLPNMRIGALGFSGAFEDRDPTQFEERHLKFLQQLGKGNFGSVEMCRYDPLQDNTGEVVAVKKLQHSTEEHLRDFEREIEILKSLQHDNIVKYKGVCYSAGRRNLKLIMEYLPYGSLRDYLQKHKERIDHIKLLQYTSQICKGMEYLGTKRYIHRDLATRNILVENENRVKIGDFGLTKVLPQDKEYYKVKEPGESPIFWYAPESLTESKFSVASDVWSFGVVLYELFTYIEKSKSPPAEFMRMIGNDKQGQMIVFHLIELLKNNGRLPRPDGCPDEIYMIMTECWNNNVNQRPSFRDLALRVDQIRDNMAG
Jak2 kinase, sequence (O60674 whole entry): as above
Tyk2 kinase, sequence (P29597 whole entry): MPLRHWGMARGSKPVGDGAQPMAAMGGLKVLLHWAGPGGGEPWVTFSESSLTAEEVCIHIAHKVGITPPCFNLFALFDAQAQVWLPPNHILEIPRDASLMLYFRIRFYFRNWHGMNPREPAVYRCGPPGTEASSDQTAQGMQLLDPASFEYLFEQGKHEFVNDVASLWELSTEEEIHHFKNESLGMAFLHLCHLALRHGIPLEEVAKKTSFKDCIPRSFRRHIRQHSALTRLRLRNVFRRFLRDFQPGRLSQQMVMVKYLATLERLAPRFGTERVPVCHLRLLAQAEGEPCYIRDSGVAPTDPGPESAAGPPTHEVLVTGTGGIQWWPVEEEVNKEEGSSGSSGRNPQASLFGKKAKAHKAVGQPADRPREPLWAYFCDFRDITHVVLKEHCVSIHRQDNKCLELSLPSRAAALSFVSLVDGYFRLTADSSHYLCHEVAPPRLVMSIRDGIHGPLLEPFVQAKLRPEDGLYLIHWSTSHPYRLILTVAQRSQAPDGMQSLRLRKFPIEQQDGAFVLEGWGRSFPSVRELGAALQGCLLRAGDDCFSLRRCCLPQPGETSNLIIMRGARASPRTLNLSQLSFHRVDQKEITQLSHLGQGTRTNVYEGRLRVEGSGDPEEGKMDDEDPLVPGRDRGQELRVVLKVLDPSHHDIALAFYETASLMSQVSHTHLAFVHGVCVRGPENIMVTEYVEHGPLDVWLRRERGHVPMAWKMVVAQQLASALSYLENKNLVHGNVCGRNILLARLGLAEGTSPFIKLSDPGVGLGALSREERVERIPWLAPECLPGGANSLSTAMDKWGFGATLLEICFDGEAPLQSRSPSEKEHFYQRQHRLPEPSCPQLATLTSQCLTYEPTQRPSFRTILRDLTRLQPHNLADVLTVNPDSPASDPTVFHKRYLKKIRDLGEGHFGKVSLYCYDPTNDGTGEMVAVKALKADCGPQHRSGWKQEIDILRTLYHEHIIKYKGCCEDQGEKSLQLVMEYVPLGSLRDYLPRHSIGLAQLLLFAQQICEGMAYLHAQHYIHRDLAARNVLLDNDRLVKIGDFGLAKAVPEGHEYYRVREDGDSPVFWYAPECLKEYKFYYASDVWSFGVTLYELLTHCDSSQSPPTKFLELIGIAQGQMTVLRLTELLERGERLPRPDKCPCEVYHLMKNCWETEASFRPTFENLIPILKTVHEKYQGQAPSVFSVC

## COc1cc2c3cc1Oc1c(OC)c(OC)cc4c1[C@@H](Cc1ccc(OCCCNC(=O)c5cncs5)c(c1)Oc1ccc(cc1)C[C@@H]3N(C)CC2)N(C)CC4 [BA #1]
[1]
  pIC50: 5.03
[2]
  pIC50: 5.13
[3]; 48 hours
  pIC50: 5.19

## COc1cc2c3cc1Oc1c(OC)c(OC)cc4c1[C@@H](Cc1ccc(OCCCNC(=O)c5cncs5)c(c1)Oc1ccc(cc1)C[C@@H]3N(C)CC2)N(C)CC4 [BA #2]
[1]
  pIC50: 4.82
[2]
  pIC50: 4.84

## COc1cc2c3cc1Oc1c(OC)c(OC)cc4c1[C@@H](Cc1ccc(OCCCN5C(=O)c6ccccc6C5=O)c(c1)Oc1ccc(cc1)C[C@@H]3N(C)CC2)N(C)CC4 [BA #3]
[1]; Homo sapiens, DU-145, 48 h
  pIC50: 5.47
[2]; Homo sapiens
  pIC50: 5.54
[3]
  improvement in activity over berbamine: at least 10 fold
[3]; Homo sapiens, K562/Adr, 48 h
  pIC50: 5.96
[4]; Homo sapiens, 48 h
  pIC50: 5.12
[5]
  pIC50: 5.49
[6]
  pIC50: 5.41
[7]
  pIC50: 5.54
[8]
  pIC50: 5.17
Melanoma A375 cells
  pIC50: 5.43
Melanoma G361 cells
  pIC50: 5.51
Melanoma SK-MEL-28 cells
  pIC50: 5.52
Melanoma SK-MEL-5 cells
  pIC50: 5.48
[9]
  pIC50: 5.55
[10]
  pIC50: 5.41
[11]
  pIC50: 5.19
Jak2/Stat3 signaling [12]
  Jak2/Stat3 signaling (phosphorylations of Jak, Src, Stat3 and AKT): inhibited Jak2/Stat3 signaling
Jak2/Stat3 signaling [13]
  Jak2/Stat3 signaling (phosphorylations of Jak, Src, Stat3 and AKT): inhibited Jak2/Stat3 signaling
Src kinase
  inhibition of Src kinase activity: did not inhibit
Jak2 kinase
  inhibition of Jak2 kinase activity: did not inhibit
Jak1 kinase
  inhibition of Jak1 kinase activity: did not inhibit
Tyk2 kinase
  inhibition of Tyk2 kinase activity: did not inhibit
[14]
  pIC50: 6.16
Mcl-1
  Mcl-1 protein level: down-regulated
Bcl-xL
  Bcl-xL protein level: down-regulated
A2058 cells
  apoptosis (Annexin V-FITC): induced apoptosis
[15]
  body weight versus vehicle: no significant weight differences

## COc1cc2c3cc1Oc1c(OC)c(OC)cc4c1[C@@H](Cc1ccc(OCCCNC(=O)c5cncs5)c(c1)Oc1ccc(cc1)C[C@@H]3N(C)CC2)N(C)CC4 [BA #4]
[1]
  pIC50: 4.81
[2]
  pIC50: 4.84
[3]; 48 hours
  pIC50: 5.52

## COc1cc2c3cc1Oc1c(OC)c(OC)cc4c1[C@@H](Cc1ccc(OCCCNC(=O)c5cncs5)c(c1)Oc1ccc(cc1)C[C@@H]3N(C)CC2)N(C)CC4 [BA #5]
[1]
  pIC50: 5.10
[2]
  pIC50: 5.41

## COc1cc2c3cc1Oc1c(OC)c(OC)cc4c1[C@@H](Cc1ccc(OCCCNC(=O)c5cncs5)c(c1)Oc1ccc(cc1)C[C@@H]3N(C)CC2)N(C)CC4 [BA #6]
[1]
  pIC50: 5.46
[2]
  pIC50: 5.47

## COc1cc2c3cc1Oc1c(OC)c(OC)cc4c1[C@@H](Cc1ccc(OCCCNC(=O)c5cncs5)c(c1)Oc1ccc(cc1)C[C@@H]3N(C)CC2)N(C)CC4 [BA #7]
[1]
  pIC50: 5.16
[2]
  pIC50: 5.46

## COc1cc2c3cc1Oc1c(OC)c(OC)cc4c1[C@@H](Cc1ccc(OCCCNC(=O)c5cncs5)c(c1)Oc1ccc(cc1)C[C@@H]3N(C)CC2)N(C)CC4 [BA #8]
[1]
  pIC50: 5.18
[2]
  pIC50: 5.15

## COc1cc2c3cc1Oc1c(OC)c(OC)cc4c1[C@@H](Cc1ccc(OCCCNC(=O)c5cncs5)c(c1)Oc1ccc(cc1)C[C@@H]3N(C)CC2)N(C)CC4 [BA #9]
[1]
  pIC50: 5.11
[2]
  pIC50: 5.09

## COc1cc2c3cc1Oc1c(OC)c(OC)cc4c1[C@@H](Cc1ccc(OCCCNC(=O)c5cncs5)c(c1)Oc1ccc(cc1)C[C@@H]3N(C)CC2)N(C)CC4 [BA #10]
[1]
  pIC50: 5.43
[2]
  pIC50: 5.47
[4]; Homo sapiens, 48 h
  pIC50: 5.03
[5]
  pIC50: 5.55

## COc1cc2c3cc1Oc1c(OC)c(OC)cc4c1[C@@H](Cc1ccc(OCCCNC(=O)c5cncs5)c(c1)Oc1ccc(cc1)C[C@@H]3N(C)CC2)N(C)CC4 [BA #11]
[1]
  pIC50: 4.91
[2]
  pIC50: 5.08

## COc1cc2c3cc1Oc1c(OC)c(OC)cc4c1[C@@H](Cc1ccc(OCCCNC(=O)c5cncs5)c(c1)Oc1ccc(cc1)C[C@@H]3N(C)CC2)N(C)CC4 [BA #12]
[1]
  pIC50: 5.25
[2]
  pIC50: 5.48
[4]; 48 hours
  pIC50: 5.04

## COc1cc2c3cc1Oc1c(OC)c(OC)cc4c1[C@@H](Cc1ccc(OCCCNC(=O)c5cncs5)c(c1)Oc1ccc(cc1)C[C@@H]3N(C)CC2)N(C)CC4 [BA #13]
[1]
  pIC50: 4.87
[2]
  pIC50: 5.09

## COc1cc2c3cc1Oc1c(OC)c(OC)cc4c1[C@@H](Cc1ccc(O)c(c1)Oc1ccc(cc1)C[C@@H]3N(C)CC2)N(C)CC4 [Berbamine]
[1]; Homo sapiens, DU-145, 48 h
  pIC50: < 4.70
[2]; Homo sapiens
  pIC50: < 4.70
[3]; Homo sapiens, K562/Adr, 48 h
  pIC50: 5.05
[4]; Homo sapiens, 48 h
  pIC50: 4.62
[5]
  pIC50: 4.71
Cancer cell lines
  pIC50: < 4.70

## O=C1c2ccccc2C(=O)N1CCCOc1ccccc1 [Phthaloyl derivative, reference compound]
[1]; Homo sapiens, DU-145, 48 h
  pIC50: < 4.70
[2]; Homo sapiens
  pIC50: < 4.70
